Test results: ChEMBL document CHEMBL5104100, “Synthesis and Preclinical Characterization of LY3154885, a Human Dopamine D1 Receptor Positive Allosteric Modulator with an Improved Nonclinical Drug-Drug Interaction Risk Profile” (J Med Chem, 2022)
Values after ≈ are worked out from the molar mass of the structure shown.

Experiments:
Cytochrome P450 = assay: Drug metabolism in human hepatocytes assessed as fraction of Cyp mediated oxidative metabolism in presence of NADPH; format: ADME, cell-based, Hepatocyte
CYP3A4 [1] = target: T1, CYP3A4 (Homo sapiens, UniProt P08684); assay: Induction of CYP3A4 in human hepatocytes; format: ADME, cell-based, Hepatocyte
CYP3A4 [2] = target: T1, CYP3A4; assay: Induction of CYP3A4 in human hepatocytes assessed as maximum efficacy relative to control
D(1A) dopamine receptor = D(1A) dopamine receptor (Homo sapiens, UniProt P21728); assay: Positive allosteric modulation of human D1 receptor in HEK293 cells assessed as increase in cyclic AMP production measured after 60 mins in presence of dopamine by HTRF assay; format: cell-based
[3] = Solubility of compound at pH 6 by HTSA assay; format: physicochemical; conditions: buffer

Chain of D(1A) dopamine receptor (P21728 whole entry): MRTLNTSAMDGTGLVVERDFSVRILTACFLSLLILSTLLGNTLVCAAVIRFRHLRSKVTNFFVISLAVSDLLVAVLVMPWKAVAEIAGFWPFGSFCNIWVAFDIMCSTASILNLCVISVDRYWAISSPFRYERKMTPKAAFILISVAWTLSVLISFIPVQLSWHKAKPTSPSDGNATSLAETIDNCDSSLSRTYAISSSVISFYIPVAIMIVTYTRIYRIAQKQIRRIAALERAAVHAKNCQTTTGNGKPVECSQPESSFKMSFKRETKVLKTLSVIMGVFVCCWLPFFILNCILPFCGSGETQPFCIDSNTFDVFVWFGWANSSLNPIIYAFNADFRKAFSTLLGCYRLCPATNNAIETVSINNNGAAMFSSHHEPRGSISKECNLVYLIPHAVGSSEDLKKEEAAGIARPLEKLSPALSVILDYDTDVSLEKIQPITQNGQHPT
T1 sequence (P08684 whole entry): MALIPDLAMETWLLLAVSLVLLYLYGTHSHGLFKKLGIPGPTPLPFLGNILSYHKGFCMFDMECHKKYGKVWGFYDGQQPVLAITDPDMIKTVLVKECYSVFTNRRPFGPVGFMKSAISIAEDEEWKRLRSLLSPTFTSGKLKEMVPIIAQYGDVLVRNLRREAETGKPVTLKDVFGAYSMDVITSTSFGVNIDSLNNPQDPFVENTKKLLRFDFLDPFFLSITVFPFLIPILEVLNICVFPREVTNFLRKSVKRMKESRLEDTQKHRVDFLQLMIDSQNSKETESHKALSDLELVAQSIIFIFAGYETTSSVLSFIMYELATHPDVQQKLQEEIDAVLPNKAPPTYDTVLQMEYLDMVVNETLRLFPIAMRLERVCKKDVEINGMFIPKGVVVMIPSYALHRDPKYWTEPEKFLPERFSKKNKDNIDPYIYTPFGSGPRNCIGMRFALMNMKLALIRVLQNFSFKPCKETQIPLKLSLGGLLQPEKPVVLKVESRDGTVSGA

Compound | Fm (Cytochrome P450) | EC50 (CYP3A4 [1]) [nM] | Emax (CYP3A4 [2]) [%] | EC50 (D(1A) dopamine receptor) [nM] | solubility [3] [µg/mL]
C[C@H]1c2cccc(CCC(C)(C)O)c2C[C@H](CO)N1C(=O)Cc1c(Cl)cccc1Cl | 0.6 | 5500 | 42 |  | 
C[C@H]1c2cccc(-c3cnn(C4CC4)c3)c2C[C@H](CO)N1C(=O)Cc1c(Cl)cccc1Cl |  |  |  | 10.3 | 2 (≈ 4.25 µM)
C[C@H]1c2cccc(-c3cn[nH]c3)c2C[C@H](CO)N1C(=O)Cc1c(Cl)cccc1Cl |  |  |  | 6.41 | 27 (≈ 62.7 µM)
C[C@H]1c2cccc(-c3cnn(C4COC4)c3)c2C[C@H](CO)N1C(=O)Cc1c(Cl)cccc1Cl |  |  |  |  | 35 (≈ 72 µM)
CCn1cc(-c2cccc3c2C[C@H](CO)N(C(=O)Cc2c(Cl)cccc2Cl)[C@H]3C)cn1 |  |  |  | 15.9 | 12 (≈ 26.2 µM)
